According to patent publication US20020094522A1, “Means and methods for monitoring non-nucleoside reverse transcriptase inhibitor antiretroviral therapy and guiding therapeutic decisions in the treatment of HIV/AIDS” (priority 2000, published 2002):
Like-named read-outs stand apart in the source and are kept apart here.

Legend:
Type in all cases: cell-based, HIV-1
[1] = test system: E138A-RTV (HIV reverse transcriptase E138A); assay: Phenotypic susceptibility assay, E138A-RTV; details: site directed mutant
From the text: The resistance test vectors containing a functional luciferase gene cassette were constructed and host cells were transfected with the resistance test vector DNA. The resistant test vectors contained patient-derived reverse transcriptase and protease sequences that were either susceptible or resistant to the antiretroviral agents, such as nucleoside reverse transcriptase inhibitors, non-nucleoside reverse transcriptase inhibitors and protease inhibitors. The resistance test vector viral particles produced by transfecting the resistance test vector DNA into host cells, either in the presence or absence of protease inhibitors, were used to infect target host cells grown either in the absence of NRTI or NNRTI or in the presence of increasing concentrations of the drug. The amount of luciferase activity produced in infected target host cells in the presence of drug was compared to the amount of luciferase produced in infected target host cells in the absence of drug. […] The IC50 values were determined by plotting percent drug inhibition vs. log10 drug concentration.
(§1) Host cells were seeded in 10-cm-diameter dishes and were transfected several days after plating with resistance test vector plasmid DNA and the envelope expression vector. […] HIV capsid protein (p24) levels in the harvested cell culture media were determined by an EIA method as described by the manufacturer (SIAC; Frederick, Md.). […] The inhibitory effect of the drug was determined using the following equation: […]
The E138A mutation alone and in combination with Y188L was introduced into resistance test vectors using the megaprimer method for site-directed mutagenesis (Sakar and Sommar, Ibid.). Resistance test vectors containing the E138A mutation (E138A-RTV) or the E138 mutation along with the […] mutation (E138A-Y188L-RTV) were then tested using the phenotypic assay described earlier and the results were compared to those determined using a genetically defined resistance test vector that was wild type at positions 188 and 138.

[2] = test system: RTV-675 (patient sample 98-675); assay: Phenotypic susceptibility assay, RTV-675; details: RTV-675, patient-derived pool
Description: (§2) Transfections were performed using a calcium-phosphate precipitation procedure. […] Cell lysates were assayed for luciferase activity (FIG. 3).
(§3) The drug inhibition curves are shown in (FIG. 3).
A resistance test vector was constructed as described in Example 1 from a patient sample designated 98-675. This patient had been previously treated with ddI, AZT, and 3TC (NRTIs), and saquinavir and nelfinavir (PRIs). Isolation of viral RNA and RT/PCR was used to generate a patient derived segment that comprised viral sequences coding for all of PR and aa 1-313 of RT. The PDS was inserted into an indicator gene viral vector to generate a resistance test vector designated RTV-675. RTV-675 was then tested in a phenotypic assay to determine accurately and quantitatively the level of susceptibility to a panel of anti-retroviral drugs. […] The pattern of susceptibility to all of the drugs tested was examined and compared to known patterns of susceptibility.

[3] = test system: G190S-RTV (HIV reverse transcriptase G190S); assay: Phenotypic susceptibility assay, G190S-RTV; details: for change in susceptibility compared to wild type reference RTV: Example 5; for fold change in susceptibility compared to wild type control RTV: values <1 = increased susceptibility
From the text: (§4) The resistance test vectors containing a functional luciferase gene cassette were constructed and host cells were transfected with the resistance test vector DNA. The resistant test vectors contained patient-derived reverse transcriptase and protease sequences that were either susceptible or resistant to the antiretroviral agents, such as nucleoside reverse transcriptase inhibitors, non-nucleoside reverse transcriptase inhibitors and protease inhibitors. The resistance test vector viral particles produced by transfecting the resistance test vector DNA into host cells, either in the presence or absence of protease inhibitors, were used to infect target host cells grown either in the absence of NRTI or NNRTI or in the presence of increasing concentrations of the drug. The amount of luciferase activity produced in infected target host cells in the presence of drug was compared to the amount of luciferase produced in infected target host cells in the absence of drug. Drug resistance was measured as the amount of drug required to inhibit by 50% the luciferase activity detected in the absence of drug (inhibitory concentration 50%, IC50). The IC50 values were determined by plotting percent drug inhibition vs. log10 drug concentration.
(§5) Host cells were seeded in 10-cm-diameter dishes and were transfected several days after plating with resistance test vector plasmid DNA and the envelope expression vector. Transfections were performed using a calcium-phosphate precipitation procedure. The cell culture media containing the DNA precipitate was replaced with fresh medium, from one to 24 hours, after transfection. Cell culture media containing resistance test vector viral particles was harvested one to four days after transfection and was passed through a […] filter before being stored at −80° C. HIV capsid protein (p24) levels in the harvested cell culture media were determined by an EIA method as described by the manufacturer (SIAC; Frederick, Md.). Before infection, target cells (293 and 293/T) were plated in cell culture media. Control infections were performed using cell culture media from mock transfections (no DNA) or transfections containing the resistance test vector plasmid DNA without the envelope expression plasmid. One to three or more days after infection the media was removed and cell lysis buffer (Promega) was added to each well. […] The inhibitory effect of the drug was determined using the following equation: […]
where RLUluc [drug] is the relative light unit of luciferase activity in infected cells in the presence of drug and RLUluc is the Relative Light Unit of luciferase activity in infected cells in the absence of drug. IC50 values were obtained from the sigmoidal curves that were generated from the data by plotting the percent inhibition of luciferase activity vs. the log10 drug concentration.

A98G-G190S-RTV = assay: Phenotypic susceptibility assay, A98G-G190S-RTV; details: values <1 = increased susceptibility
From the text: as §4
as §5, with “Md.).” for “Md.). Before infection, target cells (293 and 293/T) were plated in cell culture media. Control infections were performed using cell culture media from mock transfections (no DNA) or transfections containing the resistance test vector plasmid DNA without the envelope expression plasmid. One to three or more days after infection the media was removed and cell lysis buffer (Promega) was added to each well.”

[4] = test system: G190A-RTV (HIV reverse transcriptase G190A); assay: Phenotypic susceptibility assay, G190A-RTV
From the text: as §4, §5
where RLUluc [drug] is the relative light unit of luciferase activity in infected cells in the presence of drug and RLUluc is the Relative Light Unit of luciferase activity in infected cells in the absence of drug. […]

[5] = test system: V189L-RTV (HIV reverse transcriptase V189L); assay: Phenotypic susceptibility assay, V189L-RTV; details: V189-RTV (V189L), site directed mutant
From the text: as §4
as §5, with “Md.).” for “Md.). Before infection, target cells (293 and 293/T) were plated in cell culture media. Control infections were performed using cell culture media from mock transfections (no DNA) or transfections containing the resistance test vector plasmid DNA without the envelope expression plasmid. One to three or more days after infection the media was removed and cell lysis buffer (Promega) was added to each well.”

[6] = test system: K103N-RTV (HIV reverse transcriptase K103N); assay: Phenotypic susceptibility assay, K103N-RTV; details: site directed mutant
From the text: as §4
as §1, with “vector. Transfections were performed using a calcium-phosphate precipitation procedure.” for “vector.”
The mutations Y188L, L100I and K103N were introduced alone and in combinationn into resistance test vectors using the mega-primer method for site-directed mutagenesis (Sakar and Sommar, Ibid.). […] We determined the pattern of phenotypic susceptibility to the NNRTIs, delavirdine, nevlrapine and efavirenz, in all 6 vectors.

[7] = test system: P225H-RTV (HIV reverse transcriptase P225H); assay: Phenotypic susceptibility assay, P225H-RTV; details: P225H mutation alone
Description: as §2, §3
Resistance test vectors were constructed containing the P225H mutation alone and in combination with other known drug resistance mutations (K103N, Y181C) known to modulate the HIV susceptibility to NNRTIs. […] (Sakar G and Sommar SS (1994) Biotechniques 8(4), 404-407). […] The pattern of phenotypic susceptibility to the NNRTI, delavirdine in the P225H-RTV was altered as compared to wild type.

| Structure (SMILES) | fold change in susceptibility compared to wild type control RTV [1] | fold decrease in susceptibility (IC50) [2] | change in susceptibility compared to wild type reference RTV [3] | fold change in susceptibility compared to wild type control RTV [3] | fold change in susceptibility compared to wild type control RTV (A98G-G190S-RTV) | change in susceptibility compared to wild type reference RTV [4] | fold change in susceptibility compared to wild type control RTV [5] | fold loss of susceptibility compared to wild type control RTV [6] | change in susceptibility compared to wild type control RTV [7] | fold change in susceptibility compared to wild type control RTV ([4]; site directed mutant) | change in susceptibility compared to wild type reference RTV ([4]; listed as delviridine) |
| --- | --- | --- | --- | --- | --- | --- | --- | --- | --- | --- | --- |
| Cc1ccnc2c1NC(=O)c1cccnc1N2C1CC1 [nevirapine] | 1.3 fold | 6 fold | markedly less susceptible to nevirapine | 75 fold | greater than 800 fold | markedly less susceptible to nevirapine | 1.3 fold | 55 fold | No significant change in nevirapine susceptibility | – | – |
| O=C1Nc2ccc(Cl)cc2[C@@](C#CC2CC2)(C(F)(F)F)O1 [efavirenz] | 1.4 fold | – | – | 8 fold | greater than 250 fold | – | 1.3 fold | 30 fold | – | 8 fold | – |
| CC(C)Nc1cccnc1N1CCN(C(=O)c2cc3cc(NS(C)(=O)=O)ccc3[nH]2)CC1 [delavirdine] | 1.6 fold | 2.1 fold | slightly more susceptible to delavirdine | 0.5 fold | 0.8 fold | slightly more susceptible to delavirdine | 1.8 fold | 50 fold | more susceptible to delavirdine than the wild type control RTV | – | increased susceptibility |
